Laboratory results as given in patent US9751865B2, “Dihydro-hydantoin derivatives with herbicidal activity” (SYNGENTA PARTICIPATIONS AG, priority 2013, dated 2017).

Key:
Type in all cases: in vivo
Setaria faberi [1] = test: Pre-emergence herbicidal activity, SETFA; details: application pre-emergence, 1000 g/Ha, evaluated after 13 days, scale 0-5
Description: (§1) Seeds of a variety of test species were sown in standard soil in pots. After cultivation for one day (pre-emergence) under controlled conditions in a glasshouse (at 24/16° C., day/night; 14 hours light; 65% humidity), the plants were sprayed with an aqueous spray solution derived from the formulation of the technical active ingredient in acetone/water (50:50) solution containing 0.5% Tween 20 (polyoxyethelyene sorbitan monolaurate, CAS RN 9005-64-5). The test plants were then grown in a glasshouse under controlled conditions (at 24/16° C., day/night; 14 hours light; 65% humidity) and watered twice daily. After 13 days, the test was evaluated (5=total damage to plant; 0=no damage to plant).

Zea mays [2] = test: Pre-emergence herbicidal activity, ZEAMX; set-up: key: 5=total damage to plant; 0=no damage to plant; details: application pre-emergence, 1000 g/Ha, evaluated after 13 days, scale 0-5
Description: as §1

Abutilon theophrasti [3] = test: Pre-emergence herbicidal activity, ABUTH; set-up: key: 5=total damage to plant; 0=no damage to plant; details: application pre-emergence, 1000 g/Ha, evaluated after 13 days, scale 0-5
Description: as §1

Alopecurus myosuroides [4] = test: Post-emergence herbicidal activity, ALOMY; set-up: key: 5=total damage to plant; 0=no damage to plant; details: application post-emergence, 1000 g/Ha, evaluated after 13 days, scale 0-5
Description: (§2) Seeds of a variety of test species were sown in standard soil in pots. After 8 days cultivation (post-emergence) under controlled conditions in a glasshouse (at 24/16° C., day/night; 14 hours light; 65% humidity), the plants were sprayed with an aqueous spray solution derived from the formulation of the technical active ingredient in acetone/water (50:50) solution containing 0.5% Tween 20 (polyoxyethelyene sorbitan monolaurate, CAS RN 9005-64-5). The test plants were then grown in a glasshouse under controlled conditions (at 24/16° C., day/night; 14 hours light; 65% humidity) and watered twice daily. After 13 days, the test was evaluated (5=total damage to plant; 0=no damage to plant).

Zea mays [5] = test: Post-emergence herbicidal activity, ZEAMX; set-up: key: 5=total damage to plant; 0=no damage to plant; details: application post-emergence, 1000 g/Ha, evaluated after 13 days, scale 0-5
Description: as §2

Echinochloa crus-galli [6] = test: Pre-emergence herbicidal activity, ECHCG; set-up: key: 5=total damage to plant; 0=no damage to plant; details: application pre-emergence, 1000 g/Ha, evaluated after 13 days, scale 0-5
Description: as §1

Echinochloa crus-galli [7] = test: Post-emergence herbicidal activity, ECHCG; set-up: key: 5=total damage to plant; 0=no damage to plant; details: application post-emergence, 1000 g/Ha, evaluated after 13 days, scale 0-5
Description: as §2

Setaria faberi [8] = test: Post-emergence herbicidal activity, SETFA; set-up: key: 5=total damage to plant; 0=no damage to plant; details: application post-emergence, 1000 g/Ha, evaluated after 13 days, scale 0-5
Description: as §2

Amaranthus retroflexus [9] = test: Pre-emergence herbicidal activity, AMARE; set-up: key: 5=total damage to plant; 0=no damage to plant; details: application pre-emergence, 1000 g/Ha, evaluated after 13 days, scale 0-5
Description: as §1

Amaranthus retroflexus [10] = test: Post-emergence herbicidal activity, AMARE; set-up: key: 5=total damage to plant; 0=no damage to plant; details: application post-emergence, 1000 g/Ha, evaluated after 13 days, scale 0-5
Description: as §2

Abutilon theophrasti [11] = test: Post-emergence herbicidal activity, ABUTH; set-up: key: 5=total damage to plant; 0=no damage to plant; details: application post-emergence, 1000 g/Ha, evaluated after 13 days, scale 0-5
Description: as §2

Alopecurus myosuroides [12] = test: Pre-emergence herbicidal activity, ALOMY; details: application pre-emergence, 1000 g/Ha, evaluated after 13 days, scale 0-5
Description: as §1

SMILES	SETFA damage score (Setaria faberi [1])	ZEAMX damage score (Zea mays [2])	ABUTH damage score (Abutilon theophrasti [3])	ALOMY damage score (Alopecurus myosuroides [4])	ZEAMX damage score (Zea mays [5])	ECHCG damage score (Echinochloa crus-galli [6])	ECHCG damage score (Echinochloa crus-galli [7])	SETFA damage score (Setaria faberi [8])	AMARE damage score (Amaranthus retroflexus [9])	AMARE damage score (Amaranthus retroflexus [10])	ABUTH damage score (Abutilon theophrasti [11])	ALOMY damage score (Alopecurus myosuroides [12])
CCOC1C(O)N(c2cc(C(C)(C)C)n(C)n2)C(=O)N1C (stereo not drawn) [Compound A10]	4	2	5	5	5	5	5	5	5	5	5	4
CN1C(=O)N(c2cc(C(F)(F)F)n(C)n2)C(O)C1O (stereo not drawn) [Compound A12, 4,5-dihydroxy-1-methyl-3-[1-methyl-5-(trifluoromethyl)pyrazol-3-yl]imidazolidin-2-one]	4	1	5	5	4	4	5	5	5	5	5	4
CN1CC(O)N(c2cc(C(F)(F)F)n(C)n2)C1=O (stereo not drawn) [Compound A13]	4	2	5	5	4	5	5	5	5	5	5	4
CN1CC(O)N(c2cc3n(n2)CCC3(C)C)C1=O (stereo not drawn) [Compound A14]	4	3	5	5	5	4	5	5	5	5	5	4
COC(C)(C)c1cc(N2C(=O)N(C)CC2O)nn1C (stereo not drawn) [Compound A18]	4	2	5	–	2	4	4	5	5	5	5	–
CON1C(=O)N(c2cc(C(C)(C)OC)n(C)n2)C(O)C1C (stereo not drawn) [Compound A19]	4	2	5	–	3	4	5	5	5	5	5	–
COC(C)(C)c1cc(N2C(=O)N(C)C(C)C2O)nn1C (stereo not drawn) [Compound A20]	4	2	5	–	3	4	5	4	5	5	5	–
COCC1C(O)N(c2cc(C(C)(C)OC)n(C)n2)C(=O)N1C (stereo not drawn) [Compound A21]	4	2	5	–	2	4	3	4	5	5	5	–
COCC1C(O)N(c2cc(C(C)(C)C)n(C)n2)C(=O)N1C (stereo not drawn) [Compound A22]	1	0	5	–	4	1	5	5	5	5	5	2
